Source: US12227501B2, “3-amino-2-[2-(acylamino)pyridin-4-yl]-1,5,6,7-tetrahydro-4h-pyrrolo[3,2-c]pyridin-4-one as CSNK1 inhibitors” (Bayer Aktiengesellschaft, priority 2019, dated 2025)
Values joined by “and” are separate entries in the source; they are usually repeats but may differ in a detail not shown here. Identical values can stand only once. Like-named read-outs stand apart in the source and are kept apart here.

Key:
Assay type in all cases: biochemical
human CSNK1A1 [1] = molecular target: T1, human CSNK1A1 (Homo sapiens (Human), UniProt P48729); assay: CSNK1A1 Assay 2 (ADP-Glo, 1 μM ATP); details: substrate biotin-Ahx-KRRRAL-pS-VASLPGL, read-out: CSNK1A1 Assay 2 IC50 [mol/l] (median)
T1 sequence (P48729 whole entry): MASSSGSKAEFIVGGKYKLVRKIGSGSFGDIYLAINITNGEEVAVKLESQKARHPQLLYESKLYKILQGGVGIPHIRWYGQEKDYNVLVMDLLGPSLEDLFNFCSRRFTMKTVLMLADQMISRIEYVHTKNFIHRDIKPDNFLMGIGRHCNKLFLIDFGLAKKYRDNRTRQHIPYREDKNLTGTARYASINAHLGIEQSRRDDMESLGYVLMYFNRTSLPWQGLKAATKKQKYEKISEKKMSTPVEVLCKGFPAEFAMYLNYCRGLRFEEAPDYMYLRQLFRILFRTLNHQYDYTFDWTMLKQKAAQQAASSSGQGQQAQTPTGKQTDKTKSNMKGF
Description: CSNK1A1-inhibitory activity of compounds of the present invention in presence of 1 μM adenosine-tri-phosphate (ATP) was quantified employing the CSNK1A1 assay as described in the following paragraphs. In essence, the enzyme activity is measured by quantification of the adenosine-di-phosphate (ADP), which is generated as a co-product of the enzyme reaction, via the “ADP-Glo™ Kinase Assay” kit from the company Promega. This detection system works as follows: In a first step the ATP not consumed in the kinase reaction is quantitatively converted to cAMP employing an adenylate cyclase (“ADP-Glo-reagent”), then the adenylate cyclase is stopped and the ADP generated in the kinase reaction converted to ATP which generates in a luciferase-based reaction a glow-luminescence signal (“Kinase Detection Reagent”). Recombinant fusion protein of N-terminal Glutathion-S-Transferase (GST) and full-length human CSNK1A1, expressed by baculovirus infected insect cells and purified via Glutathion affinity chromatography, was purchased from Life Technologies (product no. PV4174) and used as enzyme. As substrate for the kinase reaction the biotinylated peptide biotin-Ahx-KRRRAL-pS-VASLPGL (C-terminus in amide form) was used which can be purchased e.g. from the company Biosyntan (Berlin-Buch, Germany).
For the assay 50 nl of a 100 fold concentrated solution of the test compound in DMSO was pipetted into a white 1536-well microtiter plate (Greiner Bio-One, Frickenhausen, Germany), 2 μL of a solution of CSNK1A1 in aqueous assay buffer [50 mM HEPES pH 7.5, 10% (v/v) glycerol, 10 mM MgCl2, 50 mM NaCl, 1 mM dithiothreitol, 0.01% (w/v) bovine serum albumin, 0.01% (v/v) Triton X-100] were added and the mixture was incubated for 15 min at 22° C. to allow pre-binding of the test compounds to the enzyme before the start of the kinase reaction. […] The concentration of CSNK1A1 was adjusted depending of the activity of the enzyme lot and was chosen appropriate to have the assay in the linear range, a typical concentrations are about 0.0375 ng/μL. The reaction was stopped by the addition of 2.5 μL of “ADP-Glo-reagent” (1:1.5 fold diluted with water) and the resulting mixture was incubated at 22° C. for 1 h to convert the ATP not consumed in the kinase reaction completely […]. Subsequently 2.5 μL of the “kinase detection reagent” (1.2 fold more concentrated than recommended by the producer) were added, the resulting mixture was incubated at 22° C. for 1 h and then the luminescence measured with a suitable measurement instrument (e.g. Viewlux™ from Perkin-Elmer). The amount of emitted light was taken as a measure for the amount of ADP generated and thereby for the activity of the CSNK1A1.

human CSNK1A1 [2] = molecular target: T1, human CSNK1A1; assay: CSNK1A1 High ATP Assay (ADP-Glo, 1 mM ATP); details: read-out: CSNK1A1 high ATP assay IC50 [mol/l] (median)
Description: CSNK1A1-inhibitory activity of compounds of the present invention in presence of 1 mM adenosine-tri-phosphate (ATP) was quantified employing the CSNK1A1-high-ATP-assay as described in the following paragraphs. In essence, the enzyme activity is measured by quantification of the adenosine-di-phosphate (ADP), which is generated as a co-product of the enzyme reaction, via the “ADP-Glo™ Kinase Assay” kit from the company Promega. This detection system works as follows: In a first step the ATP not consumed in the kinase reaction is quantitatively converted to cAMP employing an adenylate cyclase (“ADP-Glo-reagent”), then the adenylate cyclase is stopped and the ADP generated in the kinase reaction converted to ATP which generates in a luciferase-based reaction a glow-luminescence signal (“Kinase Detection Reagent”).
Recombinant fusion protein of N-terminal Glutathion-S-Transferase (GST) and full-length human CSNK1A1, expressed by baculovirus infected insect cells and purified via Glutathion affinity chromatography, was purchased from Life Technologies (product no. PV4174) and used as enzyme. As substrate for the kinase reaction the biotinylated peptide biotin-Ahx-KRRRAL-pS-VASLPGL (C-terminus in amide form) was used which can be purchased e.g. from the company Biosyntan (Berlin-Buch, Germany).
For the assay 50 nl of a 100 fold concentrated solution of the test compound in DMSO was pipetted into a white low volume 384-well microtiter plate (Greiner Bio-One, Frickenhausen, Germany), 2 μL of a solution of CSNK1A1 in aqueous assay buffer [50 mM HEPES pH 7.5, 10% (v/v) glycerol, 10 mM MgCl2, 50 mM NaCl, 1 mM dithiothreitol, 0.01% (w/v) bovine serum albumin, 0.01% (v/v) Triton X-100] were added and the mixture was incubated for 15 min at 22° C. to allow pre-binding of the test compounds to the enzyme before the start of the kinase reaction. […] The concentration of CSNK1A1 was adjusted depending of the activity of the enzyme lot and was chosen appropriate to have the assay in the linear range, a typical concentration is about 0.4 ng/μL. The reaction was stopped by the addition of 2.5 μL of “ADP-Glo-reagent” (1:1.5 fold diluted with water) and the resulting mixture was incubated at 22° C. for 1 h to convert the ATP not consumed in the kinase reaction completely […]. Subsequently 2.5 μL of the “kinase detection reagent” (1.2 fold more concentrated than recommended by the producer) were added, the resulting mixture was incubated at 22° C. for 1 h and then the luminescence measured with a suitable measurement instrument (e.g. Viewlux™ from Perkin-Elmer). The amount of emitted light was taken as a measure for the amount of ADP generated and thereby for the activity of the CSNK1A1.

human CSNK1D = human CSNK1D (Homo sapiens (Human), UniProt P48730); assay: CSNK1D Assay (ADP-Glo, 1 μM ATP); details: read-out: CSNK1D IC50 [mol/l] (median)
Chain of human CSNK1D (P48730 whole entry): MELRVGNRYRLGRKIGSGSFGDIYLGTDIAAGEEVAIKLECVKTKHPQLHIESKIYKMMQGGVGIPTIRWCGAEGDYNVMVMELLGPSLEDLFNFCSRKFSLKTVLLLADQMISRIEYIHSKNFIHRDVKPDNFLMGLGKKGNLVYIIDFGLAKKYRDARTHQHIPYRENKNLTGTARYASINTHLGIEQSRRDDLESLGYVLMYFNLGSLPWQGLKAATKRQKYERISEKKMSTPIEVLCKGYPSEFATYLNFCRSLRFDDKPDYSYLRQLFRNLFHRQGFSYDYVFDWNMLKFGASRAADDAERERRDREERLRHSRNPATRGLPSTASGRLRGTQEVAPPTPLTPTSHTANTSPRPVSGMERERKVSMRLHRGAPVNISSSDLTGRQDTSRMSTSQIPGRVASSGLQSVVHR
Description: CSNK1 D-inhibitory activity of compounds of the present invention in presence of 1 μM adenosine-tri-phosphate (ATP) was quantified employing the CSNK1D assay as described in the following paragraphs. In essence, the enzyme activity is measured by quantification of the adenosine-di-phosphate (ADP), which is generated as a co-product of the enzyme reaction, via the “ADP-Glo™ Kinase Assay” kit from the company Promega. This detection system works as follows: In a first step the ATP not consumed in the kinase reaction is quantitatively converted to cAMP employing an adenylate cyclase (“ADP-Glo-reagent”), then the adenylate cyclase is stopped and the ADP generated in the kinase reaction converted to ATP which generates in a luciferase-based reaction a glow-luminescence signal (“Kinase Detection Reagent”). Recombinant fusion protein of N-terminal Glutathion-S-Transferase (GST) and full-length human CSNK1D, expressed by baculovirus infected insect cells and purified via Glutathion affinity chromatography, was purchased from Life Technologies (product no. PV3665) and used as enzyme. As substrate for the kinase reaction the biotinylated peptide Btn-Ahx-[…] (C-terminus in amide form) was used which can be purchased e.g. from the company Biosyntan (Berlin-Buch, Germany).
For the assay 50 nl of a 100 fold concentrated solution of the test compound in DMSO was pipetted into a white 1536-well microtiter plate (Greiner Bio-One, Frickenhausen, Germany), 2 μL of a solution of CSNK1D in aqueous assay buffer [50 mM HEPES pH 7.5, 10% (v/v) glycerol, 10 mM MgCl2, 50 mM NaCl, 1 mM dithiothreitol, 0.01% (w/v) bovine serum albumin, 0.01% (v/v) Triton X-100] were added and the mixture was incubated for 15 min at 22° C. to allow pre-binding of the test compounds to the enzyme before the start of the kinase reaction. […] The concentration of CSNK1 D was adjusted depending of the activity of the enzyme lot and was chosen appropriate to have the assay in the linear range, a typical concentration is about 0.5 ng/μL. The reaction was stopped by the addition of 2.5 μL of “ADP-Glo-reagent” (1:1.5 fold diluted with water) and the resulting mixture was incubated at 22° C. for 1 h to convert the ATP not consumed in the kinase reaction completely […]. Subsequently 2.5 μL of the “kinase detection reagent” (1.2 fold more concentrated than recommended by the producer) were added, the resulting mixture was incubated at 22° C. for 1 h and then the luminescence measured with a suitable measurement instrument (e.g. Viewlux™ from Perkin-Elmer). The amount of emitted light was taken as a measure for the amount of ADP generated and thereby for the activity of the CSNK1D.

[3] = molecular target: wild-type Epidermal Growth Factor Receptor (EGFR) (Homo sapiens (Human), UniProt P00533); assay: WT-EGFR Kinase Assay (TR-FRET, 2 mM ATP)
Chain of wild-type Epidermal Growth Factor Receptor (EGFR) (P00533 669-1210): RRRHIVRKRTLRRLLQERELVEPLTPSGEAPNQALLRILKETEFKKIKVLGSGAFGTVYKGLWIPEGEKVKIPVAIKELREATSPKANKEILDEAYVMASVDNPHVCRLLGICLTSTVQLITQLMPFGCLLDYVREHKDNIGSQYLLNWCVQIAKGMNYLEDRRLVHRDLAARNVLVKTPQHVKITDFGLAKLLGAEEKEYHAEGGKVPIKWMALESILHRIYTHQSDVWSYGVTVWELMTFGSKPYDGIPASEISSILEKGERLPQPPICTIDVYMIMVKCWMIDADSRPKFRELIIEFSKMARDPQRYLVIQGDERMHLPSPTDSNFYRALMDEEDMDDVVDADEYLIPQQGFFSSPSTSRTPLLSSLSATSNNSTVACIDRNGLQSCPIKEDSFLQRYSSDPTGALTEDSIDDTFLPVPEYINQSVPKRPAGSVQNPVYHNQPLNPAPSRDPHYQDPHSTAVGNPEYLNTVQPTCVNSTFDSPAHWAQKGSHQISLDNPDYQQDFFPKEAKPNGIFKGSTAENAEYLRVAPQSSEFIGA

[4] = EGFR Wildtyp- 2 mM ATP IC50 [mol/l] (median)
[5] = read-out: EGFR Wildtyp- 2 mM ATP IC50 [mol/l] (median)

Row | SMILES | IC50 (human CSNK1A1 [1]) | IC50 (human CSNK1A1 [2]) | IC50 (human CSNK1D) | IC50 [3, 4] | IC50 [3, 5]
1 | O=C(Cc1ccc(F)cc1)Nc1cc(-c2[nH]c3c(c2Nc2ccccc2)C(=O)NC(C(F)(F)F)C3)ccn1 (racemic) [Example 43, N-{4-[3-anilino-4-oxo-6-(trifluoromethyl)-4,5,6,7-tetrahydro-1H-pyrrolo[3,2-c]pyridin-2-yl]pyridin-2-yl}-2-(4-fluorophenyl)acetamide] | 3.52 nM | 67.5 nM | 7.12 nM | 2000 nM | –
2 | CN1CCc2[nH]c(-c3ccnc(NC(=O)C(CCN4CCOCC4)c4ccccc4)c3)c(Nc3ccccc3)c2C1=O (single isomer, unassigned) [Example 31, N-[4-(3-anilino-5-methyl-4-oxo-4,5,6,7-tetrahydro-1H-pyrrolo[3,2-c]pyridin-2-yl)pyridin-2-yl]-4-(morpholin-4-yl)-2-phenylbutanamide] | 3.85 nM | 249 nM | – | > 20000 nM | –
3 | CN1CCc2[nH]c(-c3ccnc(NC(=O)C(CCN4CCOCC4)c4ccccc4)c3)c(Nc3ccccc3)c2C1=O (single isomer, unassigned) [Example 32, N-[4-(3-anilino-5-methyl-4-oxo-4,5,6,7-tetrahydro-1H-pyrrolo[3,2-c]pyridin-2-yl)pyridin-2-yl]-4-(morpholin-4-yl)-2-phenylbutanamide] | 72.2 nM | 4560 nM | – | – | > 20000 nM
4 | CN1CCc2[nH]c(-c3ccnc(NC(=O)C(CC(F)F)c4ccccc4)c3)c(Nc3ccccc3)c2C1=O (single isomer, unassigned) [Example 34, N-[4-(3-anilino-5-methyl-4-oxo-4,5,6,7-tetrahydro-1H-pyrrolo[3,2-c]pyridin-2-yl)pyridin-2-yl]-4,4-difluoro-2-phenylbutanamide] | 2.68 nM | 16.5 nM | – | > 20000 nM | –
5 | CN1CCc2[nH]c(-c3ccnc(NC(=O)C(CC(F)F)c4ccccc4)c3)c(Nc3ccccc3)c2C1=O (single isomer, unassigned) [Example 35, N-[4-(3-anilino-5-methyl-4-oxo-4,5,6,7-tetrahydro-1H-pyrrolo[3,2-c]pyridin-2-yl)pyridin-2-yl]-4,4-difluoro-2-phenylbutanamide] | 20.5 nM | 705 nM | – | 14800 nM | –
6 | CC(C(=O)Nc1cc(-c2[nH]c3c(c2Nc2ccccc2)C(=O)NC(C)(C)C3)ccn1)c1ccc(F)cc1 (single isomer, unassigned; (+)) [Example 40, (+)-N-[4-(3-anilino-6,6-dimethyl-4-oxo-4,5,6,7-tetrahydro-1H-pyrrolo[3,2-c]pyridin-2-yl)pyridin-2-yl]-2-(4-fluorophenyl)propanamide] | 4.59 nM | 51.7 nM | 10.5 nM | – | –
7 | CN1C(=O)c2c([nH]c(-c3ccnc(NC(=O)C(CC(F)F)c4ccc(F)cc4)c3)c2Nc2ccccc2)CC12CCC2 (single isomer, unassigned; enantiomer 1) [Example 161, (−)-N-[4-(3′-anilino-5′-methyl-4′-oxo-1′,4′,5′,7′-tetrahydrospiro[cyclobutane-1,6′-pyrrolo[3,2-c]pyridin]-2′-yl)pyridin-2-yl]-4,4-difluoro-2-(4-fluorophenyl)butanamide (Enantiomer 1)] | – | > 20000 nM and 19100 nM and 10600 nM and 14600 nM | 360 nM | > 20000 nM | –
8 | CN(C)CCC(C(=O)Nc1cc(-c2[nH]c3c(c2Nc2ccccc2)C(=O)N(C)CC3)ccn1)c1ccccc1 (stereo not shown) [Example 38, N-[4-(3-anilino-5-methyl-4-oxo-4,5,6,7-tetrahydro-1H-pyrrolo[3,2-c]pyridin-2-yl)pyridin-2-yl]-4-(dimethylamino)-2-phenylbutanamide] | 14.6 nM | 1290 nM | – | – | 6690 nM
9 | CN1CCc2[nH]c(-c3ccnc(NC(=O)Cc4ccc(N(C)C)cc4)c3)c(Nc3ccccc3)c2C1=O [Example 84, N-[4-(3-anilino-5-methyl-4-oxo-4,5,6,7-tetrahydro-1H-pyrrolo[3,2-c]pyridin-2-yl)pyridin-2-yl]-2-[4-(dimethylamino)phenyl]acetamide] | 2.64 nM | 217 nM | 8.5 nM | – | –
